In patent US11499963B2, “Induction of differentiation of induced pluripotent stem cells into intestinal epithelial cells” (PUBLIC UNIVERSITY CORPORATION NAGOYA CITY UNIVERSITY, priority 2016, dated 2022):
One block for each compound: values may come before it.

Experiments:
mucin 2 = assay: Expression (mRNA level) of mucin 2 in iPS cell-derived intestinal epithelial cell-like cells; conditions: for expression (mRNA level) of mucin 2 (mucosa protecting action): added for 6 days, irsogladine 10, 40 μM, rebamipide 50, 100, 250, 1000 μM, vs control
OATP = assay: Uptake of estrone-3-sulfate (ES) (OATP transport activity); type: cell-based, human; conditions: BSP 0.2 mmol/L; cells induced to differentiate using 8-Br-cAMP and IBMX
Method: (§1) After completion of induction of differentiation, incubation was performed at 37° C. or 4° C. with an uptake solution containing tritium-labeled Gly-Sar or ES. In the Gly-Sar uptake experiment, there was used an uptake solution containing 137 mmol/L sodium chloride, 5.4 mmol/L potassium chloride, 0.81 mmol/L magnesium sulfate, 0.44 mmol/L potassium dihydrogen phosphate, 0.34 mmol/L disodium hydrogen phosphate, 1.3 mmol/L calcium chloride, 4.2 mmol/L sodium hydrogen carbonate, 5.6 mmol/L D-glucose and 10 mmol/L MES and having a pH of 6.0. In the ES uptake experiment, there was used an uptake solution containing 137 mmol/L sodium chloride, 5.4 mmol/L potassium chloride, 0.81 mmol/L magnesium sulfate, 0.44 mmol/L potassium dihydrogen phosphate, 0.34 mmol/L disodium hydrogen phosphate, 1.3 mmol/L calcium chloride, 4.2 mmol/L sodium hydrogen carbonate, 5.6 mmol/L D-glucose, and 10 mmol/L HEPES and having a pH of 7.4. After completion of incubation, uptake was stopped by washing the cells with the ice-cold uptake solution. Thereafter, the cells were solubilized with a 0.2 M sodium hydroxide solution containing 0.5% sodium dodecyl sulfate (SDS), and a scintillation solution was added. The intracellular uptake of Gly-Sar or ES was calculated from the radioactivity measured using a liquid scintillation counter.

ALK4 = target: T1, ALK4 (Homo sapiens, UniProt P36896); conditions: cited from earlier work
T1 sequence (P36896 24-505): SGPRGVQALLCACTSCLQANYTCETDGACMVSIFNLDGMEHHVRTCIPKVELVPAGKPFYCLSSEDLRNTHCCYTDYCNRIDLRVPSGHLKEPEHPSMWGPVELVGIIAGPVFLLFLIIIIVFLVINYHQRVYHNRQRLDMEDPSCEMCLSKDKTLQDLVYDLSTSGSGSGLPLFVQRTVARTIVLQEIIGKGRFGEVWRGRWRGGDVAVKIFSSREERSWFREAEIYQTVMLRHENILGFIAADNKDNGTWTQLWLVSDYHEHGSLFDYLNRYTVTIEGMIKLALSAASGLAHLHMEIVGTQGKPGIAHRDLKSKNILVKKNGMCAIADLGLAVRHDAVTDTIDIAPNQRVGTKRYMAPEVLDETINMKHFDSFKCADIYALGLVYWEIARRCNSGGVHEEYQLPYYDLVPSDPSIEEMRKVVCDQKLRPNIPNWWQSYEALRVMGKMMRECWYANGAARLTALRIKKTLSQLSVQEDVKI

ALK5 = target: T2, ALK5 (Homo sapiens, UniProt P36897); conditions: cited from earlier work
T2 sequence (P36897 34-503): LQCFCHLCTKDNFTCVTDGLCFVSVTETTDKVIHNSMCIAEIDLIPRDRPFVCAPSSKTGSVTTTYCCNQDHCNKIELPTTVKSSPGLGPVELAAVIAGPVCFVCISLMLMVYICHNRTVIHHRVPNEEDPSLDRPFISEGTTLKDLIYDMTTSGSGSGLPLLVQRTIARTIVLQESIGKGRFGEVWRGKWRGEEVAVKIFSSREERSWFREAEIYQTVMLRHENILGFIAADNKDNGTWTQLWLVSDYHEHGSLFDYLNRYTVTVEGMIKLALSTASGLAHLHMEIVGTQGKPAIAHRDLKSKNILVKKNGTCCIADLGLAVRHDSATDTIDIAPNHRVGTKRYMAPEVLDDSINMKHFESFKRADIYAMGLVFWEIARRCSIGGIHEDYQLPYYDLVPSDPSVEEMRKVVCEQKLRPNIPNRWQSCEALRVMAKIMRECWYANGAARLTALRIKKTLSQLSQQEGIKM

ALK7 = target: T3, ALK7 (Homo sapiens, UniProt Q8NER5); conditions: cited from earlier work
T3 sequence (Q8NER5 21-493): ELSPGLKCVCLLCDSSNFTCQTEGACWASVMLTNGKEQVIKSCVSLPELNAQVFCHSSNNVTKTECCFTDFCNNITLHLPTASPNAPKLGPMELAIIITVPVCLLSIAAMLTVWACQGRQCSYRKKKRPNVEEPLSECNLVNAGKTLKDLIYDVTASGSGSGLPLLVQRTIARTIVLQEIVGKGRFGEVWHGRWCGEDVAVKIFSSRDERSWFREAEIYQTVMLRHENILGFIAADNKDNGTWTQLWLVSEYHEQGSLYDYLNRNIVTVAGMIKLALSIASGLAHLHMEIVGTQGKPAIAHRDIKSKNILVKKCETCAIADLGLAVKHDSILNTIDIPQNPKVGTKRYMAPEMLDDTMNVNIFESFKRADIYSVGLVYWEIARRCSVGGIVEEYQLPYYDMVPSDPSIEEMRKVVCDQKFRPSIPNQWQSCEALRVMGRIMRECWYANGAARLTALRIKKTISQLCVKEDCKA

PEPT1 = target: T4, PEPT1 (Homo sapiens, UniProt P46059); assay: Uptake of glycylsarcosine (Gly-Sar) (PEPT1 transport activity); type: cell-based; conditions: ibuprofen 3 mmol/L
T4 construct: uptake of glycylsarcosine (Gly-Sar) in the differentiated intestinal epithelial cell-like cells (PEPT1 transport activity); endogenous in cells; host or cells: human iPS cell (iPS-51: Windy)-derived intestinal epithelial cell-like cells
T4 sequence (P46059 1-708): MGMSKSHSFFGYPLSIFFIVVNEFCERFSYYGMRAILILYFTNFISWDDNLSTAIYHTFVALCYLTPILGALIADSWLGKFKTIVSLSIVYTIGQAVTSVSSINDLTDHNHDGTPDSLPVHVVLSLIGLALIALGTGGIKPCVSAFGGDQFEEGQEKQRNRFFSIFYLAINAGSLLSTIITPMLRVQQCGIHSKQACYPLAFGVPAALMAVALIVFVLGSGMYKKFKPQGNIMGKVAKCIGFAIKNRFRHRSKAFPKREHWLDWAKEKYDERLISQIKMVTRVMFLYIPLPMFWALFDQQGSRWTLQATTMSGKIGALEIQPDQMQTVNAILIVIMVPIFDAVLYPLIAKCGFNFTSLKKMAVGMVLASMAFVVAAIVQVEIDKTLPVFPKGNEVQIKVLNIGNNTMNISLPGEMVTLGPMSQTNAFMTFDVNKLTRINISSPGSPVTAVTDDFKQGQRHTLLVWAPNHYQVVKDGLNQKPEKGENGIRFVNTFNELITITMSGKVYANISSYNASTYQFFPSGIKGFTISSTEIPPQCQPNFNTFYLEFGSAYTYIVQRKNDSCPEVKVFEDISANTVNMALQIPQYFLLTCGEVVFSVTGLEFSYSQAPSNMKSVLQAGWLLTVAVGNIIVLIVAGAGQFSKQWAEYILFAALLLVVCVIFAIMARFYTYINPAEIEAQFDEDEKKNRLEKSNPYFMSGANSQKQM
Method: as §1

CYP3A4 [1] = assay: Metabolic activity of midazolam (CYP3A4 metabolic activity) in differentiated intestinal epithelial cell-like cells; type: cell-based, human; conditions: VD3 10 nmol/L; cells induced to differentiate using 8-Br-cAMP and IBMX; midazolam 100 μmol/L
Method: The metabolic activity was calculated from the amount of 1-hydroxymidazolam in the medium measured using a liquid chromatography-mass spectrometer (LC-MS/MS). After completion of the experiment on metabolism, protein quantification was carried out, and the metabolic activity was corrected by the amount of protein.

CYP3A4 [2] = test system: CYP3A4

expression (mRNA level) of mucin 2 (mucosa damaging action) (mucin 2; ketoprofen 200 μM for 6 days, excepted from the decrease seen with NSAIDs): except for ketoprofen-200
SMILES: CC(C(=O)O)c1cccc(C(=O)c2ccccc2)c1 (centres unmarked) [ketoprofen]

SMILES: O=C1OC(c2ccc(O)c(S(=O)(=O)O)c2)(c2ccc(O)c(S(=O)(=O)O)c2)c2c(Br)c(Br)c(Br)c(Br)c21 [BSP, bromsulphthalein]
uptake of ES in the presence of inhibitor (OATP): significantly reduced

SMILES: Cc1cccc(-c2nn(C(=S)Nc3ccccc3)cc2-c2ccnc3ccccc23)n1 [A-83-01]
inhibitory activity against TGF-β receptor ALK4 (ALK4): shows inhibitory activity
inhibitory activity against TGF-β receptor ALK5 (ALK5): shows inhibitory activity
inhibitory activity against TGF-β receptor ALK7 (ALK7): shows inhibitory activity

SMILES: Nc1nc(N)nc(-c2cc(Cl)ccc2Cl)n1 [irsogladine]
expression (mRNA level) of mucin 2 (mucosa protecting action) (mucin 2): increased

SMILES: O=C(NC(Cc1cc(=O)[nH]c2ccccc12)C(=O)O)c1ccc(Cl)cc1 (centres unmarked) [rebamipide]
expression (mRNA level) of mucin 2 (mucosa protecting action) (mucin 2): increased

Gly-Sar uptake in the presence of inhibitor (PEPT1; cells by the conventional differentiation method): significantly reduced
Gly-Sar uptake in the presence of inhibitor (PEPT1; cells induced to differentiate using 8-Br-cAMP and IBMX): significantly reduced
SMILES: CC(C)Cc1ccc(C(C)C(=O)O)cc1 (centres unmarked) [ibuprofen]

SMILES: C=C1/C(=C\C=C2/CCC[C@]3(C)[C@@H]([C@H](C)CCCC(C)(C)O)CC[C@@H]23)C[C@@H](O)C[C@@H]1O [1α,25-dihydroxyvitamin D3]
activity of CYP3A4 (1-hydroxymidazolam formation) upon inducer treatment (CYP3A4 [1]): significantly increased
induction of CYP3A4 expression (CYP3A4 [2]): observed
